Test results reported in US20090192149A1, “Imidazo Compounds” (SPEEDEL EXPERIMENTA AG, priority 2006, published 2009).

Target: T1, recombinant human Cyp19 enzyme (Homo sapiens, UniProt P11511)
T1 construct: purchased Becton Dickinson Biosciences, San Jose, Calif., USA
T1 sequence (P11511 1-503): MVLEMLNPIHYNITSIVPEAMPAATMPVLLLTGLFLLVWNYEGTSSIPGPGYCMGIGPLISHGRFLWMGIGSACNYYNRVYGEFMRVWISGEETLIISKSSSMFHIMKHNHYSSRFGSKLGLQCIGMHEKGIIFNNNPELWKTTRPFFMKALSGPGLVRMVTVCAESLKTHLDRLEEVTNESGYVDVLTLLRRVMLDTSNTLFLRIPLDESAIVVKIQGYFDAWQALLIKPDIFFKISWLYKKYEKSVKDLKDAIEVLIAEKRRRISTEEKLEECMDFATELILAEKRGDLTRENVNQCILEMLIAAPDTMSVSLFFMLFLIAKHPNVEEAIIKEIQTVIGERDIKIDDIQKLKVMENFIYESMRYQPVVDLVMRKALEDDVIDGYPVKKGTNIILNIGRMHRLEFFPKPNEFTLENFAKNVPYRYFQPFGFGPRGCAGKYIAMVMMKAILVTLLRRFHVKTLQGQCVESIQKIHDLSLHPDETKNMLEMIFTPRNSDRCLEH
Test: Cyp19/MFC high throughput inhibition kit (Becton Dickinson)
Assay type: biochemical
Conditions: recombinant human Cyp19 supersomes, MFC substrate
Protocol: A compound of formula (I) is to be understood as a compound having a specific configuration around the designated asymmetric carbon atom labelled “*”. If a synthesis method is used which leads to racemic compounds, the racemate resolution is carried out in accordance with conventional methods, such as via a chiral HPLC column. […] The aforementioned activity can, readily and as described below, be determined by using a commercial Cyp19 enzyme inhibition kit, preferably the Cyp19/methoxy-4-trifluoromethyl-coumarin (MFC) high throughput inhibition kit (Becton Dickinson Biosciences, San Jose, Calif., USA) as described hereafter. In the above-mentioned inhibition kit, compounds of the formula (I) show an inhibiting activity which is at least 10 times higher, but preferably 20 times higher, or more preferably 40 times higher, than the substances of the formula (I) with the opposite configuration around the asymmetric carbon atom labelled “*”. A higher inhibiting activity corresponds to a lower IC50 value.
These effects are demonstrable in in vitro assay tests using cell-free and cellular systems. […] The Cyp19/Methoxy-4-trifluoromethyl-coumarin (MFC) high throughput inhibition kit (Becton Dickinson Biosciences, San Jose, Calif., USA), for example, is designed to screen for potential inhibitors of Cyp19 catalytic activity in a 96-well format. […]

| IC50 | SMILES |
| --- | --- |
| 0.0048 µM | N#Cc1ccc(C2COCc3cncn32)cc1 (single isomer, unassigned) [Example 1, 4-(5,6-Dihydro-8H-imidazo[5,1-c][1,4]oxazin-5-yl)benzonitrile] |
| 8.35 µM | N#Cc1ccc(C2COCc3cncn32)cc1 (centres unmarked) [antipode of 1] |
